# Assay results reported in patent US8809010B2, “Method for prophylactic treatment of alzheimer's disease using inhibitors of glutaminyl cyclase and glutamate cyclases” (Probiodrug AG, priority 2003, dated 2014).
# Ends that are not written are not given here.
# Assays:
# physchem = conditions: pKa of the substrate amino group, determined by titration
# Protocol: The ionic strength was adjusted to 0.05 M by addition of NaCl. The rate profiles were evaluated by fitting to a model that is based on dissociating groups.
# For both determinations, a three-component buffer system was applied consisting of 0.05 M acetic acid, 0.05 M pyrophosphoric acid and 0.05 M Tricine. All buffers were adjusted to equal conductivity by addition of NaCl, in order to avoid differences in ionic strength. […] All determinations were carried out at 30° C.
# [1] = Nonenzymatic pGlu-formation at pH 6.0 followed for 4 weeks; conditions: pH 6.0, 4 weeks
# [2] = Thioflavin T assay of fibril formation; type: physicochemical
# Protocol: The observations for the Aβ42 peptides were substantiated using a common ThT fluorescence assay (FIG. 24-6D). […] The typical lag phase, i.e. the thermodynamically unfavorable period, in which the seeds are generated, is displaced by a hyperbolic initial phase. Thus, there is a much higher tendency to formation of ThT positive initial aggregates.
# Fibril formation analysis using Thioflavin T fluorescence was performed essentially as described previously (Chalifour R J, McLaughlin R W, Lavoie L, Morissette C, Tremblay N, Boule M, Sarazin P, Stea D, Lacombe D, Tremblay P, Gervais F 2003 Stereoselective interactions of peptide inhibitors with the beta-amyloid peptide. J Biol Chem 278:34874-34881). The DMSO stock solution was diluted in PBS to a final concentration of 50 μM of Aβ peptide. The peptide solution was added to an equal volume of ThT solution (20 μM ThT, 0.3 M NaCl, 0.01% NaN3) and applied to a 96-well microplate. Routinely, assays of each peptide were performed in triplicate on one plate. The plate was covered with an adhesive film (EXCEL Scientific, Wrightwood, Calif., USA) and incubated in the plate reader at 30° C. for up to 250 h. The fluorescence was measured every 4 h (excitation 440 nm, emission […]).
# human QC [3] = target: T1, human QC (Homo sapiens, UniProt Q16769); assay: Enzyme inactivation/reactivation procedures; type: biochemical; conditions: for inactivation of human QC: extensive dialysis against 5 mM chelator
# T1 construct: The cDNA of the mature QC starting with codon 38 was fused in frame with the plasmid encoded 6× histidine tag; 6xHis; made in house; host or cells: Pichia pastoris X33 (pPICZαB, secreted); also E. coli M15 (pQE-31)
# T1 sequence (Q16769 29-361): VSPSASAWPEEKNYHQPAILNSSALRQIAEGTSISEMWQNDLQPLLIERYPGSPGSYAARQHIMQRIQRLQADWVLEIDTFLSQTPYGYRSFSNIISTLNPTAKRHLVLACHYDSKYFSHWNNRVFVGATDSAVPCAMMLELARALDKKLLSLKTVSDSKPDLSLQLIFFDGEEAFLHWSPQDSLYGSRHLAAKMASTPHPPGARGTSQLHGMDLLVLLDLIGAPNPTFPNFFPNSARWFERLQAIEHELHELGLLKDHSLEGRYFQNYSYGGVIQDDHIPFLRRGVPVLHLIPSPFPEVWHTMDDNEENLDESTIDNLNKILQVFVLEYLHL
# [4] = test system: cuffed femoral artery: vascular remodeling, monocyte adhesion, MCP-1 expression; assay: Cuff-induced accelerated atherosclerosis in ApoE3*Leiden mice; type: in vivo; design: reduction of percentage of lumen stenosis / reduction of the area of neointima formation / reduction of total adhering cells / reduction of adhering monocytes / reduction of MCP-1 expression, absolute area, media / reduction of MCP-1 expression, absolute area, intima: concentration or dose not given beside the values
# Protocol: After 3 weeks the mice underwent surgical non-constricting cuff placement (day 0) and were divided into 2 groups, matched for plasma cholesterol levels.
# At the time of surgery, mice were anaesthetized with an intraperitoneal injection of 5 mg/kg Dormicum, 0.5 mg/kg Domitor and 0.05 mg/kg Fentanyl. This cocktail gives complete narcosis for at least one hour and can be quickly antagonized with Antisedan 2.5 mg/kg and Anexate 0.5 mg/kg.
# A longitudinal 1 cm incision is made in the internal side of the leg and the femoral artery is dissected for 3 mm length from the femoral nerve and femoral vein. The femoral artery is looped with a ligature and a non-constrictive fine bore polyethylene tubing (0.4 mm inner diameter, 0.8 mm outer diameter, length 2 mm) is longitudinally opened and sleeved loosely around the femoral artery. The cuff is closed up with two ligature knots. The skin is closed with a continued suture.
# For histological analysis, animals were sacrificed either 2 days or 14 days after cuff placement. […] After perfusion, a longitudinal 2 cm incision was made in the internal side of the leg and the cuffed femoral artery was harvested as a whole and fixed overnight in 4% formaldehyde and processed to paraffin.
# Adhesion of leukocytes in general and monocytes/macrophages in particular to the activated endothelium of the cuffed vessel wall was analyzed by microscopic analysis of cross sections harvested 2 days after cuff placement. The number of adhering and/or infiltrating leukocytes in general, identified as adhering cells at the luminal side of the vessel segment, and monocytes/macrophages in particular was counted and illustrated as cells per cross-section or as defined areas per cross section. Monocytes were identified by specific immunohistochemical staining by AIA31240 antibody, recognizing monocytes and macrophages.
# Vessel wall remodeling accelerated atherosclerosis and neoinitima formation were analyzed morphometrically in all mice sacrificed after 14 days. A full comparison between the two groups was performed for all relevant vessel wall parameters (neointima formation, vascular circumference (i.e. outward remodelling), media thickness, lumen stenosis). Accelerated atherosclerosis was analyzed by immunohistochemical staining for macrophages and foam cells in the lesion area by AIA31240 antibody.
# [5] = test system: human MCP-1 concentration, HEK293 cells; assay: Expression of human MCP-1 in HEK293 cells, MCP-1 ELISA of supernatant; type: cell-based; conditions: 10 μM inhibitor
# Protocol: For expression of N-terminal variants of human MCP-1, HEK293 cells were cultured in collagen I coated 6-well dishes and grown until 80% confluency, transfected using Lipofectamin2000 (Invitrogen) according to manufacturer's manual and incubated in the transfection solution for 5 hours. Afterwards, cells were allowed to recover in normal growth media over night. The next day, cells were incubated another 24 h in growth media. When application of QC specific inhibitor […] was intended, cells were incubated for 24 h in absence or presence of 10 μM […]. […] Furthermore, an aliquot of cell culture supernatant was stored at −80° C. for quantification of human MCP-1 concentration using human MCP-1-ELISA (Pierce).
# Plasma half-life = type: in vivo; conditions: rat
# [6] = test system: pGlu-Aβ(3-42) formation in HEK293 and β-TC3 cells; assay: pGlu-Aβ formation in cell culture (APP or mTRH-Aβ constructs), ELISA of medium; type: cell-based
# Protocol: Aβ(x-42) shall here relate to all N-terminal Aβ or truncated Aβ forms.
# In the accompanying approach, plasmids encoding variants of human APP were transfected into HEK293 cells (FIG. 24-2). The processing by β- and γ-secretase yields high amounts of Aβ(3-40/42), which can be detected in the culture medium.
# For analysis of Aβ in case of the cell culture studies, conditioned medium was diluted using EIA buffer (IBL, Hamburg) as before and diluted samples were subjected to ELISA analysis.
# THP-1 monocytes = assay: TransWell chemotaxis assay; type: cell-based, human
# Protocol: The chemotaxis assay was performed using 24 well TransWell plates with a pore size of 5 μm (Corning). Media, containing human MCP-1 variants expressed in HEK293, were used as chemoattractant. To this avail, 600 μl of the culture media of N-terminal human MCP-1 variants was applied directly or in dilutions 1:3, 1:10 and 1:30 in RPMI1640 to the lower chamber of the TransWell plate. Furthermore, undiluted media of HEK293 cells transfected with vector control were applied as negative control to the lower chamber. THP-1 cells were harvested and resuspended in RPMI1640 in a concentration of 1*10^6 cells/100 μl and applied in 100 μl aliquots to the upper chamber. Cells were allowed to migrate towards the chemoattractant for 2 h at 37° C. Subsequently, cells from the upper chamber were discarded and the lower chamber was mixed with 70 mM EDTA in PBS and incubated for 15 min at 37° C. to release cells attached to the membrane. Afterwards, cells migrated to the lower chamber were counted using a cell counter system (Schärfe System). The chemotactic index was calculated by dividing cells migrated to the stimulus from cells migrated to the negative control.
# [7] = test system: pGlu-Aβ(3-40) formation in rat cortex; assay: Rat model, intracortical injection of Aβ peptides (traumatic brain injury), ELISA and immunohistochemistry; type: in vivo
# Protocol: Aβ(x-40), Aβ(x-42) and Aβ (N3pE-42)-specific sandwich ELISAs (all from IBL, Hamburg) were performed according to the manufacturer's manual. Briefly, samples were diluted according to the expected concentration in the brain parts and applied onto a plate precoated with an antibody specific for the respective C-terminus. The samples were incubated overnight. The next day, the plate was washed 8 times and incubated for 1 h with a horse radish peroxidase conjugated detection antibody afterwards. Following this incubation the plate was washed 10 times and then developed with chromogen (TMB) for 30 min. After applying the stop solution the absorption at 450 nm was measured using a microplate reader (TECAN Sunrise). For preparation of standard curves the respective synthetic peptides supplied with the ELISA kits were used.
# Samples for ELISA were prepared from 8 animals per group (total 32 animals). After removal of the brain, the tissue were flushed shortly with ice cold saline and placed shortly on filter paper. The cerebellum were prepared from each brain and stored separately. The brains were weighed and frozen in liquid nitrogen in 2 ml Cryo-tubes and stored at −80° C. until analysis.
# For sequential separation of Aβ the following procedures were used: […]
# human QC [8] = target: T1, human QC; conditions: cited from earlier work
# [9] = test system: QC in porcine pituitary homogenate; assay: Formation of [pGlu3]Aβ3-11a in porcine pituitary homogenate, MALDI-TOF; type: biochemical; conditions: for formation of [pGlu^3]Aβ3-11a from [Gln^3]Aβ1-11a, consecutive catalysis by DP IV and QC: pituitary homogenate with added DPIV from porcine kidney
# Protocol: (§1) Matrix-assisted laser desorption/ionization mass spectrometry was carried out using the Hewlett-Packard G2025 LD-TOF System with a linear time of flight analyzer. […] Samples (5 μl) were mixed with equal volumes of the matrix solution. For matrix solution we used DHAP/DAHC, prepared by solving 30 mg 2′,6′-dihydroxyacetophenone (Aldrich) and 44 mg diammonium hydrogen citrate (Fluka) in 1 ml acetonitrile/0.1% TFA in water (1/1, v/v). A small volume (≈1 μl) of the matrix-analyte-mixture was transferred to a probe tip and immediately evaporated in a vacuum chamber (Hewlett-Packard G2024A sample prep accessory) to ensure rapid and homogeneous sample crystallization.
# mammalian QC = mammalian QC (Bos taurus, UniProt Q28120); conditions: cited from earlier work
# Chain of mammalian QC (Q28120 29-361): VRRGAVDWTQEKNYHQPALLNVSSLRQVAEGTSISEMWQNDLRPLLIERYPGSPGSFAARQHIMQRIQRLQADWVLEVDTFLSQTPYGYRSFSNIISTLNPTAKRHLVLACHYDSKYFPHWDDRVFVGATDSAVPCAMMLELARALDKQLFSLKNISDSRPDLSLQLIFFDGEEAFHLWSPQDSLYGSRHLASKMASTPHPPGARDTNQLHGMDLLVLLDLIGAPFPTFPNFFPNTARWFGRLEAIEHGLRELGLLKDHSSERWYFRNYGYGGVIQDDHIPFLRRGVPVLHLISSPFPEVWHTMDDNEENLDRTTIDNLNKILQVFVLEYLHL
# human QC [10] = target: T1, human QC; assay: Qualitative substrate conversion (MALDI-TOF / fluorometric); type: biochemical
# Protocol: as §1
# In order to further investigate the specificity and selectivity of the QCs, peptides were synthesized comprising either a modified N-terminal glutaminyl residue or a modified amino acid in the second position. […] Due to the cyclization of the glutaminyl residue or its analog, respectively, a mass difference of the substrate and the product of catalysis is detected. In cases of ammonia liberation of one mole per mole of substrate, the conversion was also analyzed quantitatively using the spectrophotometric assay.
# human QC [11] = target: T1, human QC; assay: Long-term Glu1-cyclization of Aβ-derived peptides by recombinant human QC, MALDI-TOF; type: biochemical; conditions: for glutamate-containing peptide as QC-substrate: pH 5.2 and 6.5
# Protocol: For long-term testing of Glu^1-cyclization, Aβ-derived peptides were incubated in 100 μl 0.1 M sodium acetate buffer, pH 5.2 or 0.1 M Bis-Tris buffer, pH 6.5 at 30° C. Peptides were applied in 0.5 mM [Aβ3-11a] or 0.15 mM [Aβ3-21a] concentrations, and 0.2 U QC was added all 24 hours. In case of Aβ3-21a, the assays contained 1% DMSO. At different times, samples were removed from the assay tube, peptides extracted using ZipTips (Millipore) according to the manufacturer's recommendations, mixed with matrix solution (1:1 v/v) and subsequently the mass spectra recorded. Negative controls did either contain no QC or heat deactivated enzyme.
# The QC-catalyzed formation of [pGlu^3]Aβ3-11a and [pGlu^3]Aβ3-21a was investigated at pH 5.2 and 6.5, respectively. If the QC-inhibitor benzimidazole was added to the solution before starting the assay by addition of QC, substrate conversion resulting in [pGlu^3]Aβ3-11a or [pGlu^3]Aβ3-21a was suppressed (FIGS. 15E and F). If QC was boiled before addition, formation of the pGlu-peptides was negligible (FIGS. 15A and B).
# DP IV (porcine kidney) = target: T2, DP IV (porcine kidney) (Sus scrofa, UniProt P22411); assay: DP IV cleavage of [Gln3]Aβ1-11a, MALDI-TOF; type: biochemical
# T2 construct: Measurements were carried out using purified DP IV (porcine kidney); from tissue; host or cells: porcine kidney
# T2 sequence (P22411 whole entry): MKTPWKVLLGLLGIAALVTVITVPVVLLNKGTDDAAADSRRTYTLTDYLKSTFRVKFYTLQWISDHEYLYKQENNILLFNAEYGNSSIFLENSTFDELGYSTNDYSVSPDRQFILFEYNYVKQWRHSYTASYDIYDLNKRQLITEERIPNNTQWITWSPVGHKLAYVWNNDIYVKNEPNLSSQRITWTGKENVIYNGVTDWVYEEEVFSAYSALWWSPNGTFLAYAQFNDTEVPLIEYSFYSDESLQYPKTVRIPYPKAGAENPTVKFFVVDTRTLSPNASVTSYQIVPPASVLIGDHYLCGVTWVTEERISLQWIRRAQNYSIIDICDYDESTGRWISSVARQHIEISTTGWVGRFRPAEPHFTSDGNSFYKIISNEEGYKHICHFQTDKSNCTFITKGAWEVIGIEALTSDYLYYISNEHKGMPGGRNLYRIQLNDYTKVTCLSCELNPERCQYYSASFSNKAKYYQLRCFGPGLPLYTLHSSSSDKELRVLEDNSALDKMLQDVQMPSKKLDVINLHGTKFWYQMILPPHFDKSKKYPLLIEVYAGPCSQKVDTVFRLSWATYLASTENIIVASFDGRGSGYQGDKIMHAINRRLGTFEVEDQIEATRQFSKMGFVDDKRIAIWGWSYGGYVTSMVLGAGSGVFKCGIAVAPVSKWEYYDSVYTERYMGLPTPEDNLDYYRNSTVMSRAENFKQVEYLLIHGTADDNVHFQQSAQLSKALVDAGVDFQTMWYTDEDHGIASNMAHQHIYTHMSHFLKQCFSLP
# Protocol: as §1
# [12] = Aβ aggregation assay with flow cytometry; type: physicochemical; conditions: 10 μM peptide, up to 24 h
# Protocol: At different times, samples were removed, diluted to 10 nM (based on the initial concentration of the monomer), and analyzed by flow cytometry.
# Seedless Aβ peptides were diluted to 10 μM (final total peptide concentration) into 50 mM sodium acetate, pH 5.5 containing 2 mM DTT and 100 mM NaCl and incubated at 37° C. without shaking. For fibril formation analysis, the peptides were either used as a mixture of unlabeled peptide (80%) and the respective fluorescence labeled peptide (20%) or as unlabeled peptides alone. […] In order to characterize the progress of the reaction, aliquots were removed at the indicated times, diluted to 10 nM into PBS-T (0.05% Tween-20) and analyzed. For reactions containing unlabeled peptides only, prior to flow cytometry aliquots were diluted to 5 nM into PBS-T and incubated with fluorescence labeled antibody 4G8 (Chemicon, Tececula, Calif.) at 1 nM for 1 h at 4° C.
# To ensure identical conditions for all measurements, all samples were measured in TruCount Tubes (BD Biosciences) and analysis was stopped after 20,000 beads were counted. Counts were transferred into ANSMS for evaluation (Alzheimer normalized specific measurement signal: event counts from flow cytometry analysis normalized to the size of the particles, i.e. to a mean size of FS Log=250).
compound,measurement,setting,value
NC(=O)CC[C@H](N)C(=O)Nc1ccc2ccccc2c1 [H-Gln-βNA],pKa,physchem,7.16 ± 0.01
same,first-order rate constant of nonenzymatic pGlu-formation,[1],1.2*10^−7 s^−1
pGlu-Aβ(3-40): N-terminally pyroglutamate-modified Aβ(3-40),"aggregation, ThT fluorescence",[2],much faster aggregation compared to the non-cyclized counterpart
O=S(=O)([O-])[O-].[Zn+2] [ZnSO4],restoration of QC activity after inactivation,"human QC [3]; 0.5 mM metal ion, 0.5 mM EDTA",Near-total restoration
"COc1ccc(NC(=S)NCCCn2ccnc2)cc1OC.Cl [1-(3-(1H-imidazol-1-yl)propyl)-3-(3,4-dimethoxyphenyl)thiourea hydrochloride]","reduction of MCP-1 expression, absolute area, intima",[4]; 2 days,40%
same,"reduction of MCP-1 expression, absolute area, media",[4]; 2 days,41%
same,reduction of adhering monocytes,[4]; 2 days,67%
same,reduction of total adhering cells,[4]; 2 days,45%
same,MCP-1 expression in media or neointima,[4]; 14 days,no reduction of MCP-1 expression
same,area of the media,[4]; 14 days,reduced
same,reduction of percentage of lumen stenosis,[4]; 14 days,40%
same,reduction of the area of neointima formation,[4]; 14 days,45%
same,remaining lumen,[4]; 14 days,no statistically significant effect
same,level of MCP-1 (WT) in supernatant,[5],not significantly changed
same,half-life,Plasma half-life,< 1 h
same,pGlu-Aβ concentration in medium,[6]; HEK293 and β-TC3 settings,significantly reduced
same,total Aβ concentration in medium,[6]; indicator of cell viability,not reduced
same,chemotaxis of THP-1 cells towards MCP-1 (WT) supernatant,"THP-1 monocytes; 10 μM inhibitor, dilutions 1:3 and 1:10",significantly lower chemotaxis
same,pGlu-Aβ immunostaining,[7]; injected prior to Aβ(3-40),significant reduction in pGlu-Aβ immunostaining
same,pGlu-Aβ after injection of Aβ(1-40),"[7]; rat, in vivo",did not result in a clear reduction of pGlu-Aβ
O=C(O)c1cccc(C(=O)O)n1 [dipicolinic acid],inhibition of human QC,human QC [8],inhibited
same,inactivation of human QC,human QC [3],almost completely inactivated
Fc1ccc(NC(=S)NCCCn2ccnc2)cc1,melting point,,147 to 148 °C
"c1cnc2c(c1)ccc1cccnc12 [1,10-phenanthroline]",inhibition of human QC,human QC [8],inhibited
same,inactivation of human QC,human QC [3],almost completely inactivated
same,"formation of [pGlu^3]Aβ3-11a from [Gln^3]Aβ1-11a, consecutive catalysis by DP IV and QC",[9],not formed
same,formation of [pGlu^3]Aβ3-11a from [Gln^3]Aβ3-11a,[9]; porcine pituitary homogenate,inhibited
same,inhibition of mammalian QC,mammalian QC,Inhibition
MCP-1 (WT): human MCP-1(1-76) expressed in HEK293 cells,chemotaxis of THP-1 cells,THP-1 monocytes; supernatant of transfected HEK293 cells,chemotactic response
N[C@@H](CCC(=O)O)C(=O)Nc1ccc2ccccc2c1 [H-Glu-βNA],conversion by human QC,human QC [10],None of these compounds were converted
same,first-order rate constant of nonenzymatic pGlu-formation,[1],≤ 1.0*10^−9 s^−1
c1ccc2[nH]cnc2c1 [benzimidazole],formation of [pGlu^3]Aβ3-11a or [pGlu^3]Aβ3-21a in presence of inhibitor,"human QC [11]; 5 mM inhibitor, pH 5.2 / 6.5",suppressed
EFRHDSGYE-NH2 [Aβ3-11a],glutamate-containing peptide as QC-substrate,human QC [11],can also serve as QC-substrates
EFRHDSGYEVHHQKLVFFA-NH2 [Aβ3-21a],glutamate-containing peptide as QC-substrate,human QC [11],can also serve as QC-substrates
"CC(C)[C@H](N)C(=O)N1CCCC1 [Val-Pyrr, Val-Pyrrolidide]",DPIV-catalysed formation of [Gln^3]Aβ3-11a from [Gln^3]Aβ1-11a,DP IV (porcine kidney),completely prevented
same,"formation of [pGlu^3]Aβ3-11a from [Gln^3]Aβ1-11a, consecutive catalysis by DP IV and QC",[9],not formed
Aβ(1-42): SEQ ID NO: 20,fibril formation,[12],Only very little fibril formation
